Source: patent US9884865B2, “Azaspiro[4.5] decane derivatives and use thereof” (Purdue Pharma L.P., priority 2013, dated 2018)

How the values were obtained:
human Nav1.7 [1] = biological target: T1, human Nav1.7 (Homo sapiens (Human), UniProt Q15858); experiment: FLIPR sodium dye assay (CoroNa Green AM Na+ dye, primary fluorescence assay); type: cell-based; conditions: recombinant human Nav1.7 in HEK293
human Nav1.7 [2] = biological target: T1, human Nav1.7; experiment: FLIPR membrane potential dye assay (alternative fluorescence assay); type: cell-based

T1 sequence (Q15858 other isoform, or with tags, fused parts or gaps): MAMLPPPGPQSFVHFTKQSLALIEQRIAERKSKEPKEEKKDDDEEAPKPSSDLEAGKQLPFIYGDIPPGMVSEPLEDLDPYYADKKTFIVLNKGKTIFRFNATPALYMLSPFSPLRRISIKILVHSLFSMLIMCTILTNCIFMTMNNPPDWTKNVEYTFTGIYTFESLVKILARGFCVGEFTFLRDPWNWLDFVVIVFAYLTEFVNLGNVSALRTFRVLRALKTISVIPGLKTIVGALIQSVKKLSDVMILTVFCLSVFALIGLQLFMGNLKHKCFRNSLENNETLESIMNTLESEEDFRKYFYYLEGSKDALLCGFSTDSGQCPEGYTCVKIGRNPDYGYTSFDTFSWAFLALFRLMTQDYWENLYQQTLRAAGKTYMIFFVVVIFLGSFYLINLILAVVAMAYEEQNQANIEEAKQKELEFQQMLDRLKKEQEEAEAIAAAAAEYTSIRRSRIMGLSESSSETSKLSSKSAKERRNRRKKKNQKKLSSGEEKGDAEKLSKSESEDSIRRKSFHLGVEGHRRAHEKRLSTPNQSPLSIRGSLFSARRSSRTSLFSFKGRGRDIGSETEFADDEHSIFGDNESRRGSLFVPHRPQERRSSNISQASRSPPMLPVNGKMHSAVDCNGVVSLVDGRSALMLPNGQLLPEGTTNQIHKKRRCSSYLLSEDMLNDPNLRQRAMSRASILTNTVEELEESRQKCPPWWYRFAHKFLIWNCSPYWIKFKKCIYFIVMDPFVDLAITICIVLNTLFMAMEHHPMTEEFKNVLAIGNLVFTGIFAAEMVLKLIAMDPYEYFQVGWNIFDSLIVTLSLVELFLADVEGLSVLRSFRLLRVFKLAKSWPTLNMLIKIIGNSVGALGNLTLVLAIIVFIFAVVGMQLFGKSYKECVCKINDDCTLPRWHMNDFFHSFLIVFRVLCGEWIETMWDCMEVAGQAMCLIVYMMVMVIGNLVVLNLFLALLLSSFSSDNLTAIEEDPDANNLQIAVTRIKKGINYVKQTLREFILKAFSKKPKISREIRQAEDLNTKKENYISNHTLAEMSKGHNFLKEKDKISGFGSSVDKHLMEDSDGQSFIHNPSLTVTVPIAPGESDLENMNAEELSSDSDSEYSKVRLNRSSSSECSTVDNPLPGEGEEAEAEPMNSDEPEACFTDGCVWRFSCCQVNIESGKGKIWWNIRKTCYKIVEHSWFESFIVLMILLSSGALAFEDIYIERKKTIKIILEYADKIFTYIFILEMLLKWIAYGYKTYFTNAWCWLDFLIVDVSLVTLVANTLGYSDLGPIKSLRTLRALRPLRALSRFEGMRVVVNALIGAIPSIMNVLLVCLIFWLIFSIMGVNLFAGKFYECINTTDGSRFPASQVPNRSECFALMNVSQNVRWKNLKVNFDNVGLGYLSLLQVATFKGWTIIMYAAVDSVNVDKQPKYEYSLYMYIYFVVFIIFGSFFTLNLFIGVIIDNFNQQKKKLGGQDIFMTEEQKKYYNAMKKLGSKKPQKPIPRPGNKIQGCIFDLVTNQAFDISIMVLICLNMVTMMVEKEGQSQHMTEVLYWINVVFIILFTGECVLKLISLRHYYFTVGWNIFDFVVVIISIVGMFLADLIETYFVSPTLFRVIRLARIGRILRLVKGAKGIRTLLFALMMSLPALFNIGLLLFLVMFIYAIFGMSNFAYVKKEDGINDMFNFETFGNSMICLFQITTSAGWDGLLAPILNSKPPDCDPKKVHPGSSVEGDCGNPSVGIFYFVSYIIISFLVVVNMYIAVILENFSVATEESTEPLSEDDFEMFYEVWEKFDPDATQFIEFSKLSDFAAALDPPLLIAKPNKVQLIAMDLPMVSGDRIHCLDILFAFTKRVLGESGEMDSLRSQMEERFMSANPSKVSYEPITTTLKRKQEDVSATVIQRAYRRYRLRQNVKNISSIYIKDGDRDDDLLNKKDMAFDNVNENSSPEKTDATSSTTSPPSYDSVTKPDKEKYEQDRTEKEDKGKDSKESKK

Row | SMILES | IC50 (human Nav1.7 [1]) | IC50 (human Nav1.7 [2])
1 | NC(=O)c1cc(N[C@H]2CCNC2=O)nc(N2CCC3(C=Cc4ccccc43)CC2)n1 [Compound 9, (S)-6-((2-oxopyrrolidin-3-yl)amino)-2-(spiro[indene-1,4′-piperidin]-1′-yl)pyrimidine-4-carboxamide] | 1.3 ± 0.124 µM | 
2 | O=C1NC(=O)C2(CCN(c3ccc(Oc4ccc(C(F)(F)F)cc4)cc3)CC2)N1 [Compound 19, 8-(4-(4-(trifluoromethyl)phenoxy)phenyl)-1,3,8-triazaspiro[4.5]decane-2,4-dione] |  | > 20000 nM
3 | O=C1NC(=O)C2(CCN(c3cc(-c4ccc(OC(F)(F)F)cc4)ccn3)CC2)N1 [Compound 15, 8-(4-(4-(trifluoromethoxy)phenyl)pyridin-2-yl)-1,3,8-triazaspiro[4.5]decane-2,4-dione] |  | 872 ± 117 nM
4 | NC(=O)c1cc(N[C@H]2CCNC2=O)nc(N2CCC3(CC2)C(=O)NCN3c2ccccc2)n1 [Compound 11, (S)-2-(4-oxo-1-phenyl-1,3,8-triazaspiro[4.5]decan-8-yl)-6-((2-oxopyrrolidin-3-yl)amino)pyrimidine-4-carboxamide] | > 20 µM | 
5 | O=C1NC(=O)C2(CCN(c3ccc(Oc4cccc(C(F)(F)F)c4)cn3)CC2)N1 [Compound 18, 8-(5-(3-(trifluoromethyl)phenoxy)-pyridin-2-yl)-1,3,8-triazaspiro[4.5]decane-2,4-dione] |  | 1440 ± 492 nM
6 | O=C1NC(=O)C2(CCN(c3ccc(Oc4ccc(C(F)(F)F)cc4)cn3)CC2)N1 [Compound 17, 8-(5-(4-(trifluoromethyl)phenoxy)pyridin-2-yl)-1,3,8-triazaspiro[4.5]decane-2,4-dione] |  | 1730 ± 649 nM
7 | O=C1NC(=O)C2(CCN(c3ncccc3Oc3ccc(F)cc3)CC2)N1 [Compound 20, 8-(3-(4-Fluorophenoxy)pyridin-2-yl)-1,3,8-triazaspiro[4.5]decane-2,4-dione] |  | > 20000 nM
8 | O=C1NC(=O)C2(CCN(c3ccc(Oc4cccc(F)c4)cc3)CC2)N1 [Compound 13, 8-(4-(3-Fluorophenoxy)phenyl)-1,3,8-triazaspiro[4.5]decane-2,4-dione] |  | 1540 ± 223 nM
9 | O=C1NC(=O)C2(CCN(c3cc(-c4cccc(OC(F)(F)F)c4)ccn3)CC2)N1 [Compound 21, 8-(4-(3-(Trifluoromethoxy)phenyl)pyridin-2-yl)-1,3,8-triazaspiro[4.5]decane-2,4-dione] |  | 1980 ± 309 nM
10 | NC(=O)c1cc(N[C@H]2CCNC2=O)nc(N2CCC3(CC2)OCc2ccccc23)n1 [Compound 8, (S)-6-((2-oxopyrrolidin-3-yl)amino)-2-(3H-spiro[isobenzofuran-1,4′-piperidin]-1′-yl)pyrimidine-4-carboxamide] | 3.92 ± 0.466 µM | 
11 | O=C1NC(=O)C2(CCN(c3ccc(Oc4ccc(F)cc4)cc3)CC2)N1 [Compound 12, 8-(4-(4-Fluorophenoxy)phenyl)-1,3,8-triazaspiro[4.5]decane-2,4-dione] |  | > 20000 nM
12 | O=C1NC(=O)C2(CCN(c3ccc(Oc4cccc(C(F)(F)F)c4)cc3)CC2)N1 [Compound 14, 8-(4-(3-(Trifluoromethyl)phenoxy)phenyl)-1,3,8-triazaspiro[4.5]decane-2,4-dione] |  | 1270 ± 380 nM
13 | O=C1NC(=O)C2(CCN(c3ccc(Oc4ccc(F)cc4)cn3)CC2)N1 [Compound 16, 8-(5-(4-Fluorophenoxy)pyridin-2-yl)-1,3,8-triazaspiro[4.5]decane-2,4-dione] |  | 4480 ± 1040 nM
14 | NC(=O)c1cc(N[C@H]2CCNC2=O)nc(N2CCC3(CC2)OC(=O)c2ccccc23)n1 [Compound 10, (S)-2-(3-oxo-3H-spiro [isobenzofuran-1,4′-piperidin]-1′-yl)-6-((2-oxopyrrolidin-3-yl)amino)pyrimidine-4-carboxamide] | 3.86 ± 0.39 µM | 
